Laboratory results reported in patent publication US9464075B2 (priority 2008, dated 2016).
Like-named read-outs stand apart in the source and are kept apart here.

Key:
[1] = target: A/M2 channels (Influenza virus A/Udorn/72 A/M2 protein) (Influenza A virus, UniProt P0DOF5); assay: cell-based; conditions: for activity at 100 µM: read-out: AM2 channel activity after 100 μM compound inhibition
AM2 = AM2 (Influenza A virus, UniProt P0DOF5); assay: cell-based; conditions: read-out: AM2 % inhibition at 100 μM
A/M2TM (22-46) = A/M2TM (22-46) (Influenza A virus, UniProt P0DOF5); assay: biochemical; type: binding
A/M2TM (22-46), sequence (P0DOF5 22-46 limits assumed): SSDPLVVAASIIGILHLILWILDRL

AM2, sequence (P0DOF5 whole entry): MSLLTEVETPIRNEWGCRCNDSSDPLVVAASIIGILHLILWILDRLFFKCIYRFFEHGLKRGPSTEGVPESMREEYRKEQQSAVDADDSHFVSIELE
A/M2 channels (Influenza virus A/Udorn/72 A/M2 protein), sequence (P0DOF5 whole entry, looked up): as the sequence (P0DOF5 whole entry) above

Row | Compound | activity at 100 µM [1] [%] | inhibition at 100 µM (AM2) [%] | further results
1 | c1nc(CNCCNC2CCC3(CCCCC3)CC2)c[nH]1 [Compound 14, N-(1H-Imidazol-4-ylmethyl)-N′-spiro[5.5]undec-3-yl-ethane-1,2-diamine] | 91 | – | –
2 | N=C(N)NC1CCC2(CCCCC2)CC1 [Compound 35] | – | 92 | –
3 | Cl.NC1CSC2(CCCCC2)SC1 [Compound 33, 1,5-Dithia-spiro[5.5]undec-3-yl-ammonium chloride] | – | 84.2 | –
4 | C1CCC2(CC1)CCN(C1=NCCN1)CC2 [BL-1743, 3-(4,5-Dihydro-1H-imidazol-2-yl)-3-aza-spiro[5.5]undecane, reference compound] | 25 | – | IC50 [1]: 45.3 ± 3.92 µM; Kd (A/M2TM (22-46)): 194 µM
5 | NC12CC3CC(CC(C3)C1)C2 [Amantadine, reference compound] | 6 | – | –
6 | Cl.NC1CCC2(CCCCC2)CC1 [Compound 8] | – | – | AM2 channel activity after 100 μM compound inhibition [1]: 11%
7 | OC(c1c[nH]cn1)C1CCC2(CCCCC2)CC1 (stereo not shown) [Compound 18] | 30 | – | –
8 | NCCNC1CCC2(CCCCC2)CC1 [Compound 12, N^1-Spiro[5.5]undec-3-yl-ethane-1,2-diamine] | 100 | – | –
9 | NN1CCC2(CCCCC2)CC1 [Compound 29, 3-Aza-spiro[5.5]undec-3-yl-ammonium chloride] | – | 86 | –
10 | NN1C(=O)CC2(CCCCC2)CC1=O [Compound 28, 3-Amino-3-aza-spiro[5.5]undecane-2,4-dione] | – | 29 | –
11 | OC1(c2cnc[nH]2)CCC2(CCCCC2)CC1 [Compound 15] | 40 | – | –
12 | C1CCC2(CC1)CCCNCC2 [Compound 30, 9-Azonia-spiro[5.6]dodecane chloride] | – | 94 | –
13 | NCCCNC1CCC2(CCCCC2)CC1 [Compound 13, N^1-Spiro[5.5]undec-3-yl-propane-1,3-diamine] | 100 | – | –
14 | CCC1(CC)CCc2nc(N)sc2C1 [Compound 32, 6,6-Diethyl-4,5,6,7-tetrahydro-benzothiazol-2-ylamine] | – | 32 | –
15 | c1nc(NC2CCC3(CCCCC3)CC2)n[nH]1 [Compound 11, Spiro[5.5]undec-3-yl-(1H-[1,2,4]triazol-3-yl)-amine] | 25 | – | –
16 | NC1CSC2(CCCCCC2)SC1 [Compound 34, 1,5-Dithia-spiro[5.6]dodec-3-yl-ammonium chloride] | – | 84.1 | –
17 | C1CCC2(CC1)CCNCC2 [Compound 20, 3-Aza-spiro[5.5]undecane, reference compound] | 5 | – | IC50 [1]: 0.92 ± 0.11 µM; Kd (A/M2TM (22-46); read-out: Kd): 12.9 µM
18 | Cl.NNC1CCC2(CCCCC2)CC1 [Compound 31, N′-Spiro[5.5]undec-3-yl-hydrazinium chloride] | – | 78.8 | –
